{
  "source": "patent US20050171358A1",
  "about": "(priority 2002, published 2005)",
  "key": {"Pyricularia oryzae": {"tested_on": "Pyricularia oryzae", "assay_type": "in vivo", "conditions": "200 ppm spray on rice (Koshihikari, 3 leaf stage), inoculated next day; lesion numbers on third leaves after 7 days in green house, graded by Table 5"}, "[1]": {"tested_on": "Colletotrichum lagenarium", "conditions": "200 ppm spray on cucumber (3 leaf stage), inoculated next day; lesion numbers on first and second leaves after 7 days in green house, graded by Table 5"}},
  "data": [
    {"compound": "O=C(NCc1cc(Cc2ccccc2)no1)c1ccccc1", "note": "[IV-1, N-[(3-benzyl-5-isoxazolyl)methyl]benzamide]", "values": [
      {"measurement": "Evaluation (effect for rice blast)", "setting": "Pyricularia oryzae", "value": "5 (0)"},
      {"measurement": "Evaluation (effect for cucumber anthracnose)", "setting": "[1]", "value": "5 (0)"}
    ]},
    {"compound": "COc1ccc(C(=O)NCc2cc(Cc3ccccc3)no2)cc1", "note": "[IV-2, N-[(3-benzyl-5-isoxazolyl)methyl]-4-methoxybenzamide]", "values": [
      {"measurement": "Evaluation (effect for rice blast)", "setting": "Pyricularia oryzae", "value": "5 (0)"},
      {"measurement": "Evaluation (effect for cucumber anthracnose)", "setting": "[1]", "value": "5 (0)"}
    ]},
    {"compound": "Cc1ccc(C(=O)NCc2cc(Cc3ccccc3)no2)cc1", "note": "[IV-3, N-[(3-benzyl-5-isoxazolyl)methyl]-4-methylbenzamide]", "values": [
      {"measurement": "Evaluation (effect for rice blast)", "setting": "Pyricularia oryzae", "value": "5 (0)"},
      {"measurement": "Evaluation (effect for cucumber anthracnose)", "setting": "[1]", "value": "5 (0)"}
    ]},
    {"compound": "O=C(NCc1cc(Cc2ccccc2)no1)C1CCCCC1", "note": "[IV-4, (3-benzyl-5-isoxazolyl)methylaminocarbonylcyclohexane]", "values": [
      {"measurement": "Evaluation (effect for rice blast)", "setting": "Pyricularia oryzae", "value": "4 (1˜5)"},
      {"measurement": "Evaluation (effect for cucumber anthracnose)", "setting": "[1]", "value": "4 (1˜5)"}
    ]},
    {"compound": "COc1ccc(Cc2cc(CNC(=O)c3ccc(OC)cc3)on2)cc1", "note": "[IV-9, N-{[3-(4-methoxybenzyl)-5-isoxazolyl]methyl}-4-methoxybenzamide]", "values": [
      {"measurement": "Evaluation (effect for rice blast)", "setting": "Pyricularia oryzae", "value": "5 (0)"},
      {"measurement": "Evaluation (effect for cucumber anthracnose)", "setting": "[1]", "value": "5 (0)"}
    ]},
    {"compound": "Cc1ccc(Cc2cc(CNC(=O)c3ccc(C)cc3)on2)cc1", "note": "[IV-10, N-{[3-(4-methylbenzyl)-5-isoxazolyl]methyl}-4-methylbenzamide]", "values": [
      {"measurement": "Evaluation (effect for rice blast)", "setting": "Pyricularia oryzae", "value": "5 (0)"},
      {"measurement": "Evaluation (effect for cucumber anthracnose)", "setting": "[1]", "value": "5 (0)"}
    ]},
    {"compound": "Cc1ccc(C(=O)NCc2cc(Cc3cccc(C)c3)no2)cc1", "note": "[IV-11, N-{[3-(3-methylbenzyl)-5-isoxazolyl]methyl}-4-methylbenzamide]", "values": [
      {"measurement": "Evaluation (effect for rice blast)", "setting": "Pyricularia oryzae", "value": "5 (0)"},
      {"measurement": "Evaluation (effect for cucumber anthracnose)", "setting": "[1]", "value": "5 (0)"}
    ]},
    {"compound": "Cc1ccc(C(=O)NCc2cc(Cc3ccccc3C)no2)cc1", "note": "[IV-12, N-{[3-(2-methylbenzyl)-5-isoxazolyl]methyl}-4-methyl benzamide]", "values": [
      {"measurement": "Evaluation (effect for rice blast)", "setting": "Pyricularia oryzae", "value": "5 (0)"},
      {"measurement": "Evaluation (effect for cucumber anthracnose)", "setting": "[1]", "value": "5 (0)"}
    ]},
    {"compound": "CC(c1ccccc1)c1cc(CNC(=O)c2ccccc2)on1", "note": "(stereo not shown) [IV-29, N-{[3-(1-phenylethyl)-5-isoxazolyl]methyl}benzamide]", "values": [
      {"measurement": "Evaluation (effect for rice blast)", "setting": "Pyricularia oryzae", "value": "3 (6˜10)"},
      {"measurement": "Evaluation (effect for cucumber anthracnose)", "setting": "[1]", "value": "3 (6˜10)"}
    ]},
    {"compound": "O=C(NCc1cc(CCc2ccccc2)no1)c1ccccc1", "note": "[IV-33, N-{[3-(2-phenylethyl)-5-isoxazolyl]methyl}benzamide]", "values": [
      {"measurement": "Evaluation (effect for rice blast)", "setting": "Pyricularia oryzae", "value": "5 (0)"},
      {"measurement": "Evaluation (effect for cucumber anthracnose)", "setting": "[1]", "value": "5 (0)"}
    ]},
    {"compound": "COc1ccc(C(=O)NCc2cc(CCc3ccccc3)no2)cc1", "note": "[IV-34, N-{[3-(2-phenylethyl)-5-isoxazolyl]methyl}-4-methoxybenzamide]", "values": [
      {"measurement": "Evaluation (effect for rice blast)", "setting": "Pyricularia oryzae", "value": "5 (0)"},
      {"measurement": "Evaluation (effect for cucumber anthracnose)", "setting": "[1]", "value": "5 (0)"}
    ]},
    {"compound": "Cc1ccc(C(=O)NCc2cc(CCc3ccccc3)no2)cc1", "note": "[IV-35, N-{[3-(2-phenylethyl)-5-isoxazolyl]methyl}-4-methylbenzamide]", "values": [
      {"measurement": "Evaluation (effect for rice blast)", "setting": "Pyricularia oryzae", "value": "5 (0)"},
      {"measurement": "Evaluation (effect for cucumber anthracnose)", "setting": "[1]", "value": "5 (0)"}
    ]},
    {"compound": "Cc1ccc(C(=O)NCc2cc(CSc3ccccc3)no2)cc1", "note": "[IV-40, N-[(3-phenylthiomethyl-5-isoxazolyl)methyl]-4-methylbenzamide]", "values": [
      {"measurement": "Evaluation (effect for rice blast)", "setting": "Pyricularia oryzae", "value": "3 (6˜10)"},
      {"measurement": "Evaluation (effect for cucumber anthracnose)", "setting": "[1]", "value": "2 (11˜20)"}
    ]},
    {"compound": "O=C(NCc1cc(COc2ccccc2)no1)c1ccccc1", "note": "[IV-44, N-[(3-phenoxymethyl-5-isoxazolyl)methyl]benzamide]", "values": [
      {"measurement": "Evaluation (effect for rice blast)", "setting": "Pyricularia oryzae", "value": "5 (0)"},
      {"measurement": "Evaluation (effect for cucumber anthracnose)", "setting": "[1]", "value": "5 (0)"}
    ]},
    {"compound": "COc1ccc(C(=O)NCc2cc(COc3ccccc3)no2)cc1", "note": "[IV-45, N-[(3-phenyloxymethyl-5-isoxazolyl)methyl]-4-methoxy benzamide]", "values": [
      {"measurement": "Evaluation (effect for rice blast)", "setting": "Pyricularia oryzae", "value": "5 (0)"},
      {"measurement": "Evaluation (effect for cucumber anthracnose)", "setting": "[1]", "value": "5 (0)"}
    ]},
    {"compound": "Cc1ccc(C(=O)NCc2cc(COc3ccccc3)no2)cc1", "note": "[IV-46, N-[(3-phenoxymethyl-5-isoxazolyl)methyl]-4-methylbenzamide]", "values": [
      {"measurement": "Evaluation (effect for rice blast)", "setting": "Pyricularia oryzae", "value": "5 (0)"},
      {"measurement": "Evaluation (effect for cucumber anthracnose)", "setting": "[1]", "value": "5 (0)"}
    ]},
    {"compound": "COc1ccc(C(=O)NCc2cc(COc3ccccc3C)no2)cc1", "note": "[IV-47, N-{[3-(2-methylphenyl)oxymethyl-5-isoxazolyl]methyl}-4-methoxy benzamide]", "values": [
      {"measurement": "Evaluation (effect for rice blast)", "setting": "Pyricularia oryzae", "value": "5 (0)"},
      {"measurement": "Evaluation (effect for cucumber anthracnose)", "setting": "[1]", "value": "5 (0)"}
    ]},
    {"compound": "COc1ccc(C(=O)NCc2cc(COc3cccc(C)c3)no2)cc1", "note": "[IV-48, N-{[3-(3-methylphenyl)oxymethyl-5-isoxazolyl]methyl}-4-methoxybenzamide]", "values": [
      {"measurement": "Evaluation (effect for rice blast)", "setting": "Pyricularia oryzae", "value": "3 (6˜10)"},
      {"measurement": "Evaluation (effect for cucumber anthracnose)", "setting": "[1]", "value": "2 (11˜20)"}
    ]},
    {"compound": "Cc1ccc(C(=O)NCc2cc(COc3cccc(C)c3)no2)cc1", "note": "[IV-49, N-{[3-(3-methylphenyl)oxymethyl-5-isoxazolyl]methyl}-4-methylbenzamide]", "values": [
      {"measurement": "Evaluation (effect for rice blast)", "setting": "Pyricularia oryzae", "value": "2 (11˜20)"},
      {"measurement": "Evaluation (effect for cucumber anthracnose)", "setting": "[1]", "value": "2 (11˜20)"}
    ]},
    {"compound": "COc1ccc(C(=O)NCc2cc(COc3ccc(C)cc3)no2)cc1", "note": "[IV-50, N-{[3-(4-methylphenyl)oxymethyl-5-isoxazolyl]methyl}-4-methoxybenzamide]", "values": [
      {"measurement": "Evaluation (effect for rice blast)", "setting": "Pyricularia oryzae", "value": "5 (0)"},
      {"measurement": "Evaluation (effect for cucumber anthracnose)", "setting": "[1]", "value": "4 (1˜5)"}
    ]},
    {"compound": "COc1ccc(C(=O)NCc2cc(COc3cccc(C#N)c3)no2)cc1", "note": "[IV-52, N-{[3-(3-cyanophenyl)oxymethyl-5-isoxazolyl]methyl}-4-methoxybenzamide]", "values": [
      {"measurement": "Evaluation (effect for rice blast)", "setting": "Pyricularia oryzae", "value": "3 (6˜10)"},
      {"measurement": "Evaluation (effect for cucumber anthracnose)", "setting": "[1]", "value": "2 (11˜20)"}
    ]},
    {"compound": "COc1ccc(C(=O)NCc2cc(COc3ccc(C#N)cc3)no2)cc1", "note": "[IV-53, N-([3-(4-cyanophenyl)oxymethyl-5-isoxazolyl]methyl}-4-methoxybenzamide]", "values": [
      {"measurement": "Evaluation (effect for rice blast)", "setting": "Pyricularia oryzae", "value": "5 (0)"},
      {"measurement": "Evaluation (effect for cucumber anthracnose)", "setting": "[1]", "value": "5 (0)"}
    ]},
    {"compound": "COc1ccc(C(=O)NCc2cc(COc3ccccc3OC)no2)cc1", "note": "[IV-54, N-{[3-(2-methoxyphenyl)oxymethyl-5-isoxazolyl]methyl}-4-methoxybenzamide]", "values": [
      {"measurement": "Evaluation (effect for rice blast)", "setting": "Pyricularia oryzae", "value": "3 (6˜10)"},
      {"measurement": "Evaluation (effect for cucumber anthracnose)", "setting": "[1]", "value": "4 (1˜5)"}
    ]},
    {"compound": "COc1ccc(C(=O)NCc2cc(COc3cccc(OC)c3)no2)cc1", "note": "[IV-55, N-{[3-(3-methoxyphenyl)oxymethyl-5-isoxazolyl]methyl}-4-methoxybenzamide]", "values": [
      {"measurement": "Evaluation (effect for rice blast)", "setting": "Pyricularia oryzae", "value": "4 (1˜5)"},
      {"measurement": "Evaluation (effect for cucumber anthracnose)", "setting": "[1]", "value": "4 (1˜5)"}
    ]},
    {"compound": "COc1ccc(OCc2cc(CNC(=O)c3ccc(OC)cc3)on2)cc1", "note": "[IV-56, N-{[3-(4-methoxyphenyl)oxymethyl-5-isoxazolyl]methyl}-4-methoxybenzamide]", "values": [
      {"measurement": "Evaluation (effect for rice blast)", "setting": "Pyricularia oryzae", "value": "3 (6˜10)"},
      {"measurement": "Evaluation (effect for cucumber anthracnose)", "setting": "[1]", "value": "2 (11˜20)"}
    ]},
    {"compound": "COc1ccc(C(=O)NCc2cc(COc3ccccc3F)no2)cc1", "note": "[IV-57]", "values": [
      {"measurement": "Evaluation (effect for rice blast)", "setting": "Pyricularia oryzae", "value": "5 (0)"},
      {"measurement": "Evaluation (effect for cucumber anthracnose)", "setting": "[1]", "value": "5 (0)"}
    ]},
    {"compound": "COc1ccc(C(=O)NCc2cc(COc3cccc(F)c3)no2)cc1", "note": "[IV-58, N-{[3-(3-fluorophenyl)oxymethyl-5-isoxazolyl]methyl}-4-methoxybenzamide]", "values": [
      {"measurement": "Evaluation (effect for rice blast)", "setting": "Pyricularia oryzae", "value": "5 (0)"},
      {"measurement": "Evaluation (effect for cucumber anthracnose)", "setting": "[1]", "value": "5 (0)"}
    ]},
    {"compound": "COc1ccc(C(=O)NCc2cc(COc3ccc(F)cc3)no2)cc1", "note": "[IV-59, N-{[3-(4-fluorophenyl)oxymethyl-5-isoxazolyl]methyl}-4-methoxybenzamide]", "values": [
      {"measurement": "Evaluation (effect for rice blast)", "setting": "Pyricularia oryzae", "value": "5 (0)"},
      {"measurement": "Evaluation (effect for cucumber anthracnose)", "setting": "[1]", "value": "5 (0)"}
    ]},
    {"compound": "COc1ccc(C(=O)NCc2cc(COc3ccc([N+](=O)[O-])cc3)no2)cc1", "note": "[IV-60, N-{[3-(4-nitrophenyl)oxymethyl-5-isoxazolyl]methyl}-4-methoxybenzamide]", "values": [
      {"measurement": "Evaluation (effect for rice blast)", "setting": "Pyricularia oryzae", "value": "5 (0)"},
      {"measurement": "Evaluation (effect for cucumber anthracnose)", "setting": "[1]", "value": "5 (0)"}
    ]}
  ]
}
